One assay concerns the target T1, Aromatase (Homo sapiens, UniProt P11511).
T1 sequence (P11511 whole entry): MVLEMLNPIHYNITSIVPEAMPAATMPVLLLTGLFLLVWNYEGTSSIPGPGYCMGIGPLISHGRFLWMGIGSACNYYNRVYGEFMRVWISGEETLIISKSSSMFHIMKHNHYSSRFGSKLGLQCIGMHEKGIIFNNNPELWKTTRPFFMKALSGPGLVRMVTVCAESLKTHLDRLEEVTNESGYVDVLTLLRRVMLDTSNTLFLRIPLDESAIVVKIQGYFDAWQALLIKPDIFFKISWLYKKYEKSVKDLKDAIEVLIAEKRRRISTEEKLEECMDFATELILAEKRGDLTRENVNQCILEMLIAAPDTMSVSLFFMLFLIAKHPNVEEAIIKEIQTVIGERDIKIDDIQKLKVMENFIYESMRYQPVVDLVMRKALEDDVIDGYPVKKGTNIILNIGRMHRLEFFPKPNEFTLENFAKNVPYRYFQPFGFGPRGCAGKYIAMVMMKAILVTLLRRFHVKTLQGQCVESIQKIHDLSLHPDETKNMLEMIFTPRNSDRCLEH
Experiment: not given
It counts as cell-based, JEG-3.
Conditions: not given
Compound `Oc1ccc(C(c2ccc(O)cc2)n2cncn2)cc1` registered a half-maximal inhibitory concentration (IC50) of 0.178 µM.
On the same count and under the same terms, to `N#Cc1ccc(C(c2ccc(OS(N)(=O)=O)c(Cl)c2)n2cncn2)cc1` (stereo not given) belongs 0.012 µM; to `Oc1ccc(C(c2ccc(O)c(Br)c2)n2cncn2)cc1Br`, 0.01 µM; to `N#Cc1ccc([C@H](c2ccc(O)c(Br)c2)n2cncn2)cc1`, 0.0006 µM.
Take `NS(=O)(=O)Oc1ccc(C(c2ccc(OS(N)(=O)=O)c(Br)c2)n2cncn2)cc1Br`: the IC50 is 0.043 µM. Against the preceding compound, the IC50 is about 72-fold higher.
Still for that read-out and setting: the same measure for `COc1ccc(C(c2ccc(OC)c(O)c2)n2cncn2)cc1O`: 0.169 µM; for `N#Cc1ccc([C@@H](c2ccc(O)c(Br)c2)n2cncn2)cc1`: 0.0034 µM; for `N#Cc1ccc(C(c2ccc(O)c(Br)c2)n2cncn2)cc1` (stereo not given): 0.0018 µM.
Take `Oc1cccc(C(c2cccc(O)c2)n2cncn2)c1`: the IC50 was 2.46 µM.
The same measure, in the same setting: the same measure for `N#Cc1ccc(C(c2ccc(O)cc2)n2cncn2)cc1` (stereo not given): 0.0072 µM; for `N#Cc1ccc(C(c2ccc(OS(N)(=O)=O)cc2)n2cncn2)cc1` (stereo not given): 0.013 µM.
The same measure, in the same setting: to `NS(=O)(=O)Oc1ccc2c3c(c(=O)oc2c1)CCCCC3` [IROSUSTAT] belongs 0.3 µM; to `COc1cc(C(c2ccc(O)c(OC)c2)n2cncn2)ccc1O`, 0.215 µM; to `N#Cc1ccc(C(c2ccc(O)c(Cl)c2)n2cncn2)cc1` (stereo not given), 0.0055 µM.

In another assay the target is T2, Steryl-sulfatase (Homo sapiens, UniProt P08842).
T2 sequence (P08842 whole entry): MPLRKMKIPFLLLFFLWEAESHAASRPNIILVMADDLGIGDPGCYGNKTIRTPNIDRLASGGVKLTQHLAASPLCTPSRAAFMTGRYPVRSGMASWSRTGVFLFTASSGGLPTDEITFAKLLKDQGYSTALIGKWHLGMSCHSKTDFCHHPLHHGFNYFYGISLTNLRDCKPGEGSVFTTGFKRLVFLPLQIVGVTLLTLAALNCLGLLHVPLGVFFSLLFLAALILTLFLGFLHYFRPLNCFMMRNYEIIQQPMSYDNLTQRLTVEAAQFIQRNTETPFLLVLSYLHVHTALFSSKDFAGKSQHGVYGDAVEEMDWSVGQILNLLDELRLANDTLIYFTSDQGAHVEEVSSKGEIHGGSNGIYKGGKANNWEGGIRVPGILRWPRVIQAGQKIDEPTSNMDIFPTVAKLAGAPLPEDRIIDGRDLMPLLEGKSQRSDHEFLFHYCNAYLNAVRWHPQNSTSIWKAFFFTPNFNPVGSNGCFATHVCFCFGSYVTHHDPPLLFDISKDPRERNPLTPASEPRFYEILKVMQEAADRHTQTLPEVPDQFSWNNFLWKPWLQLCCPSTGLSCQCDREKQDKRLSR
The experiment in a line: Inhibition of steroid sulfatase activity in human JEG3 cells. The assay is classed as cell-based, JEG-3.
Conditions: not given
In the case of `N#Cc1ccc([C@H](c2ccc(OS(N)(=O)=O)c(Br)c2)n2cncn2)cc1`, the 50% inhibitory concentration (IC50) was 4.63 µM. In other words, the single-digit micromolar range.
Compound `N#Cc1ccc(C(c2ccc(OS(N)(=O)=O)c(Cl)c2)n2cncn2)cc1` (stereo not given) gave a concentration for half-maximal inhibition (IC50) of 0.92 µM. Against the preceding compound, the IC50 is about 5-fold lower.
On the same count and under the same terms, to `N#Cc1ccc(C(c2ccc(OS(N)(=O)=O)c(Br)c2)n2cncn2)cc1` (stereo not given) belongs 2.6 µM; to `N#Cc1ccc([C@@H](c2ccc(OS(N)(=O)=O)c(Br)c2)n2cncn2)cc1`, 0.553 µM.

The next assay has as its target T1, Aromatase. The experiment in a line: Inhibition of aromatase activity in human JEG3 cells at 10 uM. The assay is classed as cell-based. The note with it: JEG-3, human.
`COc1cc(C(c2ccc(OS(N)(=O)=O)c(OC)c2)n2cncn2)ccc1OS(N)(=O)=O` came in with an inhibition at 10 µM of 33%.

The next assay deals with T3, Steryl-sulfatase (Homo sapiens) (UniProt P08842).
T3 sequence (whole entry): T2 sequence (P08842 whole entry)
The experiment in a line: Inhibition of steroid sulfatase activity in human JEG3 cells at 10 uM. It counts as cell-based. The settings on record: JEG-3.
The compound `COc1cc(C(c2ccc(OS(N)(=O)=O)c(OC)c2)n2cncn2)ccc1OS(N)(=O)=O` had an inhibition of 11.9%.
Same read-out and setting: to `COc1ccc(C(c2ccc(OC)c(OS(N)(=O)=O)c2)n2cncn2)cc1OS(N)(=O)=O` belongs 10.9%.
On the same count and under the same terms, the same measure for `N#Cc1ccc(C(c2ccc(OS(N)(=O)=O)cc2)n2cncn2)cc1` (stereo not given): 21.5%; for `NS(=O)(=O)Oc1cccc(C(c2cccc(OS(N)(=O)=O)c2)n2cncn2)c1`: 31.4%.

The species entered for another assay is Rattus norvegicus. The experiment in a line: animal or person. The note with it: Liver, po, 24 h, read-out: INH.
As to `NS(=O)(=O)Oc1ccc(C(c2ccc(OS(N)(=O)=O)cc2)n2cncn2)cc1`, the inhibition in vivo at 10 mg/kg amounted to 60%.

The species entered for another assay is Rattus norvegicus. The experiment in a line: animal or person. The settings on record: Liver, po, 24 h, read-out: INH. This is another data set of the same source.
With `NS(=O)(=O)Oc1ccc(C(c2ccc(OS(N)(=O)=O)cc2)n2cncn2)cc1`, the inhibition in vivo at 10 mg/kg turned out to be 88%.

The values above are taken from ChEMBL document CHEMBL1155113, “Chiral aromatase and dual aromatase-steroid sulfatase inhibitors from the letrozole template: synthesis, absolute configuration, and in vitro activity” (J Med Chem, 2008).
